Our source for the IC50 and EC50 values is patent publication US20250353853A1, “FLAVIVIRUS INHIBITORS” (IRBM S.P.A., priority 2022, published 2025).

Test [1] has as its target West Nile Virus (WNV) NS2B-NS3 protease (West Nile virus (WNV), UniProt P06935). In words: WNV Protease Inhibition Assay. It is filed as biochemical. The source says:
WNV Protease Inhibition Assay

For test [2], the system named is ZIKV replicon in Vero cells. In words: ZIKV Replication Inhibition Assay (replicon, NanoLuc). The settings on record: Zika virus, Vero, 72 h, read-out: Zika Replicon EC50. (In general: In antiviral work, replicon cells carry a viral genome segment that copies itself.)
Setting [3] is: 2 nM protease, 10 μM pERTKR-AMC substrate, read-out: WNV Protease IC50.

Where two headings read alike, the source gives them in different places.

West Nile Virus (WNV) NS2B-NS3 protease, sequence (P06935 1502-1679 limits assumed): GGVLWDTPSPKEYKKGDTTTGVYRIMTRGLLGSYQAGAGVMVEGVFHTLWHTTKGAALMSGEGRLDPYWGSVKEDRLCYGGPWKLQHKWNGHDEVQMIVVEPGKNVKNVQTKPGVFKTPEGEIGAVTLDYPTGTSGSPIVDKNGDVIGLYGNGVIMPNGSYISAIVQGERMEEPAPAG
West Nile Virus (WNV) NS2B-NS3 protease, sequence (P06935 1371-1501 partner limits assumed): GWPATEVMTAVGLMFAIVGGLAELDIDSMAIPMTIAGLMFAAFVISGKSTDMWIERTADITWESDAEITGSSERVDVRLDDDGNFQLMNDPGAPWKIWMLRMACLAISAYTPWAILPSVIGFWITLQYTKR

Usually IC50 stands for the point on the concentration scale where inhibition reaches its midpoint. For orientation: EC50 means the midpoint of the concentration-response curve. Consider `O=C([N-]c1c[n+](Cc2ccc(-c3cncnc3C(F)(F)F)cn2)no1)Nc1ccnc(C(F)(F)F)c1` [Example 177, ((2-(trifluoromethyl)pyridin-4-yl)carbamoyl)(3-((5-(4-(trifluoromethyl)pyrimidin-5-yl)pyridin-2-yl)methyl)-1,2,3-oxadiazol-3-ium-5-yl)amide], for which the half-maximal inhibitory concentration (IC50) in test [1] (setting [3]) is less than 100 nM. In addition, the EC50 in test [2] is 100 to 1000 nM.
In the case of `Cc1noc(C)c1-c1ccc(C[n+]2cc([N-]C(=O)Nc3ccc(F)c(C(F)(F)F)c3)on2)nc1` [Example 150, (3-((5-(3,5-dimethylisoxazol-4-yl)pyridin-2-yl)methyl)-1,2,3-oxadiazol-3-ium-5-yl)((4-fluoro-3-(trifluoromethyl)phenyl)carbamoyl)amide], the IC50 in test [1] lay within 100 to 1000 nM. The concentration for a half-maximal effect (EC50) in test [2] is less than 100 nM.
As for `Cc1cc(NC(=O)[N-]c2c[n+](Cc3ccc(-c4c(C)noc4C)cn3)no2)cc(C(F)(F)F)c1` [Example 156, (3-((5-(3,5-dimethylisoxazol-4-yl)pyridin-2-yl)methyl)-1,2,3-oxadiazol-3-ium-5-yl)((3-methyl-5-(trifluoromethyl)phenyl)carbamoyl)amide], in test [1], the IC50 fell in the range of 1000 to 20000 nM. In addition, the 50% effective concentration (EC50) in test [2] fell in the range of 100 to 1000 nM.
For the molecule `Cc1noc(C)c1-c1ccc(C[n+]2cc([N-]C(=O)Nc3cncc(C(F)(F)F)c3)on2)nc1` [Example 126, (3-((5-(3,5-dimethylisoxazol-4-yl)pyridin-2-yl)methyl)-1,2,3-oxadiazol-3-ium-5-yl)((5-(trifluoromethyl)pyridin-3-yl)carbamoyl)amide], the 50% inhibitory concentration (IC50) in test [1] (setting [3]) was less than 100 nM. Besides, in test [2], the EC50 is less than 100 nM.
Take `COc1nccc(C)c1-c1ccc(C[n+]2cc([N-]C(=O)Nc3cccc(C(F)(F)F)c3)on2)nc1` [Example 159, (3-((2′-methoxy-4′-methyl-[3,3′-bipyridin]-6-yl)methyl)-1,2,3-oxadiazol-3-ium-5-yl)((3-(trifluoromethyl)phenyl)carbamoyl)amide]: the 50% inhibitory concentration (IC50) in test [1] was in the range of 100 to 1000 nM. Besides, in test [2], the EC50 was less than 100 nM.
Consider `O=C([N-]c1c[n+](Cc2cccc(-c3cncnc3)c2)no1)Nc1cccc(C(F)(F)F)c1` [Example 50, (3-(3-(Pyrimidin-5-yl)benzyl)-1,2,3-oxadiazol-3-ium-5-yl)((3-(trifluoromethyl)phenyl)carbamoyl)amide], for which the IC50 in test [1] is 100 to 1000 nM. The EC50 in test [2] is 100 to 1000 nM.
In the case of `COc1ncc(-c2ccc(C[n+]3cc([N-]C(=O)Nc4cccc(C(F)(F)F)c4)on3)nc2)c(C)n1` [Example 134, (3-((5-(2-methoxy-4-methylpyrimidin-5-yl)pyridin-2-yl)methyl)-1,2,3-oxadiazol-3-ium-5-yl)((3-(trifluoromethyl)phenyl)carbamoyl)amide], the IC50 in test [1] (setting [3]) was less than 100 nM. In addition, the half-maximal effective concentration (EC50) in test [2] was less than 100 nM.
On to `Cc1cnccc1-c1ccc(C[n+]2cc([N-]C(=O)Nc3cccc(C(F)(F)F)c3)on2)nc1` [Example 163, (3-((3′-methyl-[3,4′-bipyridin]-6-yl)methyl)-1,2,3-oxadiazol-3-ium-5-yl)((3-(trifluoromethyl)phenyl)carbamoyl)amide], for which the 50% inhibitory concentration (IC50) in test [1] was in the range of 100 to 1000 nM. Also, in test [2], the EC50 was less than 100 nM.
For `O=C([N-]c1c[n+](Cc2ccc(-c3cncnc3C(F)(F)F)cn2)no1)Nc1cncc(C(F)(F)F)c1` [Example 137, ((5-(trifluoromethyl)pyridin-3-yl)carbamoyl)(3-((5-(4-(trifluoromethyl)pyrimidin-5-yl)pyridin-2-yl)methyl)-1,2,3-oxadiazol-3-ium-5-yl)amide], the half-maximal inhibitory concentration (IC50) in test [1] (setting [3]) was less than 100 nM. For the same molecule, the concentration for a half-maximal effect (EC50) in test [2] is less than 100 nM.
Regarding `O=C([N-]c1c[n+](Cc2ccc(-c3cncnc3)cc2)no1)Nc1cccc(C(F)(F)F)c1` [Example 26, (3-(4-(Pyrimidin-5-yl)benzyl)-1,2,3-oxadiazol-3-ium-5-yl)((3-(trifluoromethyl)phenyl)carbamoyl)amide], the IC50 in test [1] lay within 100 to 1000 nM. The concentration giving a half-maximal response (EC50) in test [2] lay within 100 to 1000 nM.
